# Reference: ChEMBL document CHEMBL3525955, “Glucuronidation of the red clover isoflavone irilone by liver microsomes from different species and human UDP-glucuronosyltransferases” (Drug Metab Dispos, 2011)
# Legend:
# Format in all cases: ADME
# [1] = molecular target: T1, UDP-glucuronosyltransferase 1A8 (Homo sapiens, UniProt Q9HAW9); assay: Drug metabolism assessed as human recombinant UGT1A8-mediated irilone-O-4'-monoglucuronide formation at 25 uM incubated for 5 mins prior to UDPGA addition measured after 90 mins by HPLC-DAD analysis; conditions: recombinant enzyme, 1.5 h
# T1 sequence (Q9HAW9 whole entry): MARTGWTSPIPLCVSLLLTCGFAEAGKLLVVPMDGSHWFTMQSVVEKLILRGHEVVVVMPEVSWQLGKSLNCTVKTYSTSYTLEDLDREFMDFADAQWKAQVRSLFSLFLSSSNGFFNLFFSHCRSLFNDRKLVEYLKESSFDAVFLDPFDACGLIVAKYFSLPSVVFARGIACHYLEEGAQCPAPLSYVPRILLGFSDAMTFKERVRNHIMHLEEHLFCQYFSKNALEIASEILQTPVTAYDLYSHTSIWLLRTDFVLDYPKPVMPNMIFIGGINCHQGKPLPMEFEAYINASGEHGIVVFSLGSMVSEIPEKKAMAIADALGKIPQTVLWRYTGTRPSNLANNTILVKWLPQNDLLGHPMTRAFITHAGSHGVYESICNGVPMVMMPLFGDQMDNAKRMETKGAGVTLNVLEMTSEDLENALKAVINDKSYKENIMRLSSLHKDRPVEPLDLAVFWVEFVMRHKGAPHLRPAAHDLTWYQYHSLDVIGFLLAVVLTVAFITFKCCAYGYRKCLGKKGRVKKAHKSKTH
# [2] = molecular target: T2, UDP-glucuronosyltransferase 1A7 (Homo sapiens, UniProt Q9HAW7); assay: Substrate inhibition of human recombinant UGT1A7 assessed as IRI-O-5-monoglucuronide formation incubated for 5 mins prior to UDPGA addition measured after 90 mins by Eadie-Hoftsee plot analysis
# T2 sequence (Q9HAW7 whole entry): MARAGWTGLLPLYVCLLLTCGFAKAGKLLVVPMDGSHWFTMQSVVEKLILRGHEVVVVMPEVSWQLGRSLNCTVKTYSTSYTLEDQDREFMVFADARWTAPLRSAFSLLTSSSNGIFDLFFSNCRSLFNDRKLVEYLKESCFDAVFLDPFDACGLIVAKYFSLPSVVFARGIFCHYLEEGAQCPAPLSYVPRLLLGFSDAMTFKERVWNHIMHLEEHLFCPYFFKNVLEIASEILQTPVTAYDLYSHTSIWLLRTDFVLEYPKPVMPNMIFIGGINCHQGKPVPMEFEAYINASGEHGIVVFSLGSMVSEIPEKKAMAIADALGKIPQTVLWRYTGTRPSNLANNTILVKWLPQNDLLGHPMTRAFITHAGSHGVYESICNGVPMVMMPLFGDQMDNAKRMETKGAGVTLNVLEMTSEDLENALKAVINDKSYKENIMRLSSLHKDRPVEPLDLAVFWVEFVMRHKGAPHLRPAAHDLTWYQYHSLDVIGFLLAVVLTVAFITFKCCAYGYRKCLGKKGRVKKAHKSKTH
# [3] = molecular target: T3, UDP-glucuronosyltransferase 1A9 (Homo sapiens, UniProt O60656); assay: Drug metabolism assessed as human recombinant UGT1A9-mediated irilone-O-5-monoglucuronide formation incubated for 5 mins prior to UDPGA addition measured after 90 mins by HPLC-DAD analysis; conditions: recombinant enzyme, 1.5 h
# T3 sequence (O60656 whole entry): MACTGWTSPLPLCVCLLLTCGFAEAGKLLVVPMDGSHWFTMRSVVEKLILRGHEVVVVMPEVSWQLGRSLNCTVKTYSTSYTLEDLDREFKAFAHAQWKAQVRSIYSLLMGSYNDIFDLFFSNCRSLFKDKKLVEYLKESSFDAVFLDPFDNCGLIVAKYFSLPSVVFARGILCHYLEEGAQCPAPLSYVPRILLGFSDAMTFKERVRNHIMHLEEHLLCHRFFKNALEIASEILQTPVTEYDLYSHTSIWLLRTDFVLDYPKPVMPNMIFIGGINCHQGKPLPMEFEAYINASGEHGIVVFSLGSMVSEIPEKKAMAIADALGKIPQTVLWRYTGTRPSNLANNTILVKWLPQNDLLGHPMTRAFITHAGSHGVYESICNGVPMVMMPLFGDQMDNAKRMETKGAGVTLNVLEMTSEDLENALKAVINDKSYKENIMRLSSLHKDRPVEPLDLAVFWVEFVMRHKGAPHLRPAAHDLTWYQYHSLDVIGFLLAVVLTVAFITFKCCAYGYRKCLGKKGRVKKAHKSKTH
# Liver microsome [4] = assay: Drug metabolism in Sprague-Dawley rat liver microsomes assessed as IRI-O-4'-monoglucuronide formation incubated for 5 mins prior to UDPGA addition measured after 90 mins by Eadie-Hoftsee plot analysis; conditions: 1.5 h
# [5] = molecular target: T1, UDP-glucuronosyltransferase 1A8; assay: Activity of human recombinant UGT1A8 assessed as intrinsic clearance incubated for 5 mins prior to UDPGA addition measured after 90 mins; conditions: recombinant enzyme, 1.5 h
# [6] = molecular target: T1, UDP-glucuronosyltransferase 1A8; assay: Substrate inhibition of human recombinant UGT1A8 assessed as IRI-O-5-monoglucuronide formation incubated for 5 mins prior to UDPGA addition measured after 90 mins by Eadie-Hoftsee plot analysis
# Liver microsome [7] = assay: Drug metabolism in Sprague-Dawley rat liver microsomes assessed as substrate inhibition of IRI-O-4'-monoglucuronide formation incubated for 5 mins prior to UDPGA addition measured after 90 mins by Eadie-Hoftsee plot analysis
# Liver microsome [8] = assay: Drug metabolism in Sprague-Dawley rat liver microsomes assessed as substrate inhibition of IRI-O-5-monoglucuronide formation incubated for 5 mins prior to UDPGA addition measured after 90 mins by Eadie-Hoftsee plot analysis
# Liver microsome [9] = assay: Drug metabolism in Sprague-Dawley rat liver microsomes assessed as IRI-O-5-monoglucuronide formation incubated for 5 mins prior to UDPGA addition measured after 90 mins by Eadie-Hoftsee plot analysis; conditions: 1.5 h
compound,measurement,setting,value
O=c1c(-c2ccc(O)cc2)coc2cc3c(c(O)c12)OCO3,Drug metabolism,[1],metabolite_detected
same,Ki,[2],101 µM
same,Drug metabolism,[3],metabolite_detected
same,Km,Liver microsome [4],124 µM
same,Vmax,Liver microsome [4],1.33 nmol/mg/min
same,CL,[5],20200 µL/min/mg
same,Ki,[6],22.6 µM
same,Ki,Liver microsome [7],44.7 µM
same,Ki,Liver microsome [8],65.3 µM
same,Km,Liver microsome [9],34 µM
same,Vmax,Liver microsome [9],1.37 nmol/mg/min
